Test results as given in paper doi:10.1101/2023.11.15.567208 (bioRxiv, 2024).
Entries after “also recorded” stand apart in the source; their conditions may differ. One block for each molecule: values may come before it.

What was measured:
[1] = Acetone evoked cold response; format: in vivo, mouse; conditions: acetone droplet on paw; time licking in 60 s; WT n=12, DKO n=12
Description: Mice were habituated on a plexiglass floor stand for 1 hour. Mice were videotaped as acetone was applied to the plantar region of their hind paw. Acetone was applied using a custom-made applicator, consisting of a 1ml syringe and plastic well where acetone was pushed out to generate a droplet for applying to the paw. Behavior was scored post-hoc by a blinded observer and the total amount of time spent licking the paw in a 60 second time interval was recorded. The experiment was repeated for a second trial and average scores were used.

[2] = LiCl conditioned taste aversion; format: in vivo, mouse; conditions: lithium chloride 200 mg/kg injection paired with 15 mM saccharin; WT n=7, DKO n=6
Description: Mice were single-housed and habituated for 3 days to drink from two glass bottles with stainless-steel ball-bearing spouts. Mice then received 3 days of training, where they were water-deprived for 22 hours followed by 30 mins exposure to a single water-containing bottle, then 90 mins exposure to both bottles. On the conditioning day, after 22 hours of water deprivation, mice were exposed to a single bottle containing saccharin water (15 mM) for 45 mins. Mice were then injected with lithium chloride (200 mg/kg) or PBS, and then given ordinary water for 75 mins. The animals were then water deprived for a further 22 hours. On the test day, mice were simultaneously exposed to a bottle containing water and a bottle containing saccharin for 45 mins. The volume of each solution consumed was measured by weighing the bottles before and after. To calculate the saccharin preference index of each animal, the volume of saccharin consumed was divided by the total of fluid consumed, with a value less than 0.5 indicating the development of an aversion to saccharin. […]
bioRxiv preprint doi: https://doi.org/10.1101/2023.11.15.567208; this version posted December 2, 2024. […]
Figure 2 – f igure supplement 2. Tac1::Calca DKO mice develop LiCl-induced conditioned taste aversion (A) Quantification of conditioned taste aversion (CT A) test in W T (blue ) and DKO (red) mice. […]

[3] = Chloroquine-induced itch, scratching bouts; format: in vivo, mouse; conditions: 20 μl of 25 μM chloroquine diphosphate intradermal, nape of neck; scratching bouts in 15 min; WT n=8, DKO n=11
Description: Hair from the nape of the mouse’s neck was removed 2–3 days prior to behavioral experiments using VEET hair removal cream and the area thoroughly washed and moisturizing cream applied. Mice were habituated to transparent acrylic chambers (10cm × 10cm × 13cm) 30 minutes prior to injection. Post habituation, a blinded investigator injected 20 μl of 25 μM Chloroquine diphosphate salt (Sigma-Aldrich: C6628) solution in 0.9% saline intradermally into the nape of the neck using a 31G insulin syringe. Videos were quantified by a separate blinded investigator with a scratching bout counted each time the mouse attended to the injected area with the hind paw after the paw was removed from the floor or mouth.

[4] = 0.6% acetic acid, 10 μl per gram, intraperitoneal; writhes in 15 min starting 5 min after injection; WT n=9, DKO n=7
Description: Mice were habituated on a plexiglass stand for 1 hour. 0.6% of acetic acid was injected intraperitoneally at a dose of 10 μl per gram weight of the animal. Mice were videotaped for 20 minutes. The number of writhes was quantified post-hoc by a blinded observer during a 15-minute interval between 5 and 20 minutes after injection.

[5] = Chemical algogens, licking behavior after intraplantar injection; format: in vivo, mouse; conditions: 20 μl intraplantar, time licking in 5 min
Description: 0.3% capsaicin in 80% saline / 10% Tween-80 / 10% ethanol or 1% AITC in saline was injected into the plantar surface of the hind paw. The injected volume for both was 20 μl. Mice were video-taped for 5 minutes. A blinded observer scored the amount of time in seconds the mouse spent licking the injected paw in a 5-minute time period.

[6] = Plasma extravasation, Evans blue dye; format: in vivo, mouse; conditions: Evans blue optical density, normalized to uninjected paw; capsaicin WT n=9, DKO n=7; AITC n=8 each
Description: (§1) Mice were anesthetized using isoflurane. 200 μl of Evans Blue dye was injected into the mouse’s tail vein. 15 mins later, one hindpaw was injected with an algogen. After a further 30 mins, the volume of each paw was measured by displacement using a plethysmometer (Ugo Basile). Both paws were then cut at the ankle and placed in tubes in the oven at 55 °C for 24 hours to dry. 1 ml of formamide was then added to each paw and incubated for 4–6 days at 55 °C to extract the dye from the paw tissue. 50 μl samples of dye-infused formamide from each paw were then dispensed to a 96 well plate in duplicate, along with a range of Evans blue dilutions in formamide to generate a standard curve. The optical density of each sample was then measured using a plate-reader, and the concentration of Evans Blue per paw sample interpolated from the standard curve to generate an index of extravasation in that paw.

[7] = Hindpaw swelling / oedema, paw volume; format: in vivo, mouse; conditions: for Swelling of the hindpaw: hindpaw of DKO mice compared with WT, observation on injection; for Paw oedema (paw volume): intraplantar injection, volume normalized to uninjected paw, capsaicin WT n=9, DKO n=7, AITC n=8 each
Description: as §1

[8] = system: dorsal horn network activation; assay: Capsaicin-evoked dorsal horn Fos staining; format: in vivo; conditions: capsaicin 0.3% into right hindpaw; WT n=5, DKO n=4; mean Fos puncta of 5 sections per mouse
[9] = biological target: T1, CGRP receptor (Calcrl and Ramp1) (Mus musculus, UniProt Q9R1W5+Q9WTJ5); assay: Co-culture of DRG neurons with CGRP-sniffer cells, capsaicin-evoked CGRPα release; format: cell-based; conditions: capsaicin 10 μM, n=18 wells from 3 mice
T1 construct: expressed in transfected cells; host or cells: HEK293; Calcrl/Gα15/GCaMP6s by PiggyBac transposase (puromycin), Ramp1 by pSBbi-Neo-cmv-TETo2-RAMP1 IRES-mTagBFP2-NLS (geneticin); doxycycline-induced
T1 sequence (Q9R1W5 23-463): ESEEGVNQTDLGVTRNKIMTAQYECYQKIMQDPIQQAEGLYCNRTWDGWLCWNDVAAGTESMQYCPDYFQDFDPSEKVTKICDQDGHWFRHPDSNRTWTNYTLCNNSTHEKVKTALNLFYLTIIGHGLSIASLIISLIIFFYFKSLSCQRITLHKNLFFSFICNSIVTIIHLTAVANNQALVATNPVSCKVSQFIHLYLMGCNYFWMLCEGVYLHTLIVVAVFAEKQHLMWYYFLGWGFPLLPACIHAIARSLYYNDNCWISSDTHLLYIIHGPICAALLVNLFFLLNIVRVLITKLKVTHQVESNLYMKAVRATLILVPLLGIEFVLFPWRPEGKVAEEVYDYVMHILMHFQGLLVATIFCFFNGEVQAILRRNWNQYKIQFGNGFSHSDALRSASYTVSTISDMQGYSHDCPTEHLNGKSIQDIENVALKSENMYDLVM
T1 sequence (Q9WTJ5 27-148): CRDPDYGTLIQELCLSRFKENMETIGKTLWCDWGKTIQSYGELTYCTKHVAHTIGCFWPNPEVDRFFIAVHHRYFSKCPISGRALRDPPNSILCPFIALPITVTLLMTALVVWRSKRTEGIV

[10] = biological target: T2, Substance P receptor (NKR1) (Mus musculus, UniProt P30548); assay: Co-culture of DRG neurons with Substance P-sniffer cells, capsaicin-evoked Substance P release; format: cell-based; conditions: capsaicin 10 μM, n=12 wells from 2 mice; for Substance P-sniffer GCaMP response, WT DRG: co-culture with WT (control) DRG neurons
T2 construct: T2A self-cleaving peptide remnant (from the polycistronic P2A-TACR1-T2A cassette) (C); expressed in transfected cells; host or cells: Flp-In T-REx HEK293 (Thermo Fisher Scientific, R78007), lentiviral transduction, hygromycin selection
T2 sequence (P30548 whole entry): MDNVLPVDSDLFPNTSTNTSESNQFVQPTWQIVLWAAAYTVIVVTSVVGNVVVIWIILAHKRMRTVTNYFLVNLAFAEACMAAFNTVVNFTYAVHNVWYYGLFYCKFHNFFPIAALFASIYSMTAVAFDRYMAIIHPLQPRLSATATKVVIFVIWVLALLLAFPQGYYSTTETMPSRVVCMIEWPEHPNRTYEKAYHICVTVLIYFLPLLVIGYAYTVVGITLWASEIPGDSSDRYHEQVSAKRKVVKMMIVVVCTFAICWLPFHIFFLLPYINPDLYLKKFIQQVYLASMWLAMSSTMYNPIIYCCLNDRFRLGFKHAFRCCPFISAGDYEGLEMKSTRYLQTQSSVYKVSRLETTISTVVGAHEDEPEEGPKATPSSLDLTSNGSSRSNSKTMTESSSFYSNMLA

[11] = Oxaliplatin cold allodynia, Cold Plate; format: in vivo, mouse; conditions: one day after intraplantar oxaliplatin; Cold Plate 10 °C, 5 min; WT n=9, DKO n=6
From the text: The plate was set to the desired temperature. A camera set up with a mirror was used for better visibility of the mouse on the hot plate. A clear cylindrical tube was placed around the hot plate to ensure the mouse cannot escape. Once the hot plate reached the set temperature, the mouse was placed on the hot plate and the top of the cylinder was covered. At the cut-off time, the mouse was taken off the hot plate and placed back in the cage. The latency to lick was scored post-hoc using the recorded videos by a blinded observer.
Chemotherapy-induced neuropathy was induced in mice by intraplantar injection of oxaliplatin into the left hind paw ([Deuis et al., 2013]; [MacDonald et al., 2021]). Oxaliplatin was made up to a dose of 80 μg in 40 μl of 5% glucose solution, due to its instability in chloride-containing saline solution. The number of nocifensive behaviors in 5 mins was assessed on the Cold Plate held at 10 °C 24 hours later.

[12] = ref MacDonald et al., 2021; cited from earlier work
From the text: Lastly, we investigated how dual peptide deletion affected the development of allodynia symptoms, where innocuous stimuli are perceived as painful, in two mouse models of neuropathic pain ([Jensen and Finnerup, 2014]).

[13] = Inflammatory pain model, Hargreaves radiant heat; format: in vivo, mouse; conditions: PGE2 20 μl, 500 nM intraplantar
Description: The radiant heat stimulus was aimed for the centre of the plantar region of the mouse’s hind paw. The active intensity of the low stimulus was 40 intensity units, and of the high stimulus 55. The response latency was recorded for 5 trials with 10-minute breaks in between each trial.
CFA and PGE2 was purchased from Sigma. 20 μl of CFA was injected into the heel of the hind paw. PGE2 (20 μl, 500 nM) was injected into the plantar surface of the hindpaw, and behavior was assessed over the same time-frame that produces in vivo sensitization of nociceptor responses (up to 120 minutes). Inflammation-induced hypersensitivity was measured using the Hargreaves and the von Frey, as described above.

Structure (SMILES): CC(C)=O [acetone]
Cold response evoked by acetone [1]: the same between groups

Structure (SMILES): [Cl-].[Li+] [LiCl, lithium chloride]
Conditioned taste aversion (saccharin preference) [2]: pr onoun ced; also recorded: strong and indistinguishable conditioned taste aversion in both WT and DKO mice

Structure (SMILES): CCN(CC)CCCC(C)Nc1ccnc2cc(Cl)ccc12 (centres unmarked) [chloroquine]
Scratching [3]: DKO mice scratched robustly following intradermal chloroquine injection, a response indistinguishable from WT animals

Structure (SMILES): CC(=O)O [acetic acid]
Writhing behavior [4]: comparable writhing behavior in both WT and DKO mice

Structure (SMILES): C=CCN=C=S [AITC, allyl isothiocyanate]
Licking behavior, AITC ([5]; 1% AITC in saline, WT n=12, DKO n=12): evoked similar licking behavior to capsaicin that was unaffected by peptide deletion
Plasma extravasation [6]: both WT and DKO mice show paw swelling and plasma extravasation
Swelling of the hindpaw [7]: provoked swelling of the hindpaw of DKO mice to a similar extent as WT mice
Paw oedema (paw volume) [7]: both WT and DKO mice show paw swelling

CGRP-sniffer calcium response, WT DRG [9]: strong increases in calcium
Substance P-sniffer GCaMP response, DKO DRG ([10]; co-culture with DKO DRG neurons): no Substance P-sniffer cell responses
Substance P-sniffer GCaMP response, WT DRG [10]: robust GCaMP responses
Structure (SMILES): COc1cc(CNC(=O)CCCC/C=C/C(C)C)ccc1O [capsaicin]
Dorsal horn Fos expression, capsaicin-evoked [8]: No differences in dorsal horn Fos expression were observed
CGRP-sniffer calcium response, WT DRG ([9]; listed as Capsaicin): increase in CGRP-sniffer GCaMP6s fluorescence
Substance P-sniffer GCaMP response, WT DRG ([10]; listed as Capsaicin): increase in Substance P-sniffer GCaMP6s fluorescence
Licking behavior, capsaicin ([5]; 0.3% capsaicin, WT n=9, DKO n=8): evoked coping-like licking responses in both genotypes, however responses were variable and although decreased licking was observed in some DKO mice, differences did not reach statistical significance
Plasma extravasation [6]: both WT and DKO mice show paw swelling and plasma extravasation; also recorded: plasma extravasation was intact in DKO mice
Swelling of the hindpaw [7]: provoked swelling of the hindpaw of DKO mice to a similar extent as WT mice
Paw oedema (paw volume) [7]: both WT and DKO mice show paw swelling; also recorded: no appreciable differences in capsaicin-induced swelling between WT and DKO mice

Structure (SMILES): O=C1[O][Pt]2([NH][C@@H]3CCCC[C@H]3[NH]2)[O]C1=O [oxaliplatin]
Cold allodynia, pain-like behaviors [11]: pronounced pain-like behaviors
Cold allodynia (literature) [12]: evokes extreme cold allodynia

Structure (SMILES): CCCCC[C@H](O)/C=C/[C@H]1[C@H](O)CC(=O)[C@@H]1C/C=C\CCCC(=O)O [PGE2, Prostaglandin E2]
WT vs DKO difference in Hargreaves latency after PGE2, post-hoc ([13]; post-hoc Sidak's test, WT n=10, DKO n=10): only the 120 min time-point shows a significant difference (p=0.025)
Heat and mechanical hypersensitivity, PGE2 ([13]; up to 120 min, Hargreaves (n=10 each) and von Frey (n=6 each)): short-lasting heat and mechanical hypersensitivity to a similar extent in both WT and DKO mice
Swelling of the hindpaw [7]: provoked swelling of the hindpaw of DKO mice to a similar extent as WT mice
